{"source": "ChEMBL document CHEMBL4507281", "about": "“Data for DCP probe BI-4394” (2021)", "key": {"[1]": {"target": "Serine/threonine-protein kinase mTOR (Homo sapiens) (UniProt P42345)", "details": "Compound concentration 100.0 nM"}, "[2]": {"target": "Serine/threonine-protein kinase 33 (Homo sapiens) (UniProt Q9BYT3)", "details": "Compound concentration 100.0 nM"}, "[3]": {"target": "Tyrosine-protein kinase Lck (Homo sapiens) (UniProt P06239)", "details": "Compound concentration 100.0 nM"}, "[4]": {"target": "Serine/threonine-protein kinase STK11 (Homo sapiens) (UniProt Q15831)", "details": "Compound concentration 100.0 nM"}, "[5]": {"target": "Ribosomal protein S6 kinase alpha-5 (Homo sapiens) (UniProt O75582)", "sequence (O75582 whole entry, looked up)": "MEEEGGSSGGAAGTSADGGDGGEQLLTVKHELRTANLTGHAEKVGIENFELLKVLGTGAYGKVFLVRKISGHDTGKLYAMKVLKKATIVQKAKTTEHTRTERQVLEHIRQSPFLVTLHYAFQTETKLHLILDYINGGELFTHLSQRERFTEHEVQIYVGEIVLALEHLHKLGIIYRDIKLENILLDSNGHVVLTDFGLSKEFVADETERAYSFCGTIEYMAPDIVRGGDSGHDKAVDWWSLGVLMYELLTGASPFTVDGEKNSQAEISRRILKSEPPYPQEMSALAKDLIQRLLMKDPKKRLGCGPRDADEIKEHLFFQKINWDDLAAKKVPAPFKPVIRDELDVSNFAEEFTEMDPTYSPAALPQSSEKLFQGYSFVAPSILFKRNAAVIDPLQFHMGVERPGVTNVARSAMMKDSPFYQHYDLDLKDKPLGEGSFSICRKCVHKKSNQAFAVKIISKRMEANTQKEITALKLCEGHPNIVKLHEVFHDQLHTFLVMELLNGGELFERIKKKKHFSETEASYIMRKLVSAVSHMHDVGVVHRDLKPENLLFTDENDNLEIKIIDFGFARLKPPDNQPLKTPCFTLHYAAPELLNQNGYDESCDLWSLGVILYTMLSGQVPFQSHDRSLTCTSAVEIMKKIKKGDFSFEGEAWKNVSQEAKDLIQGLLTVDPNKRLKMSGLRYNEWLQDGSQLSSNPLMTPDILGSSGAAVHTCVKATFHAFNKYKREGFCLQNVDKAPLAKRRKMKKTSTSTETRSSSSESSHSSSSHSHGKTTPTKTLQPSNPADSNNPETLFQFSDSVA", "details": "Compound concentration 100.0 nM"}, "[6]": {"target": "5-hydroxytryptamine receptor 1D (Homo sapiens) (UniProt P28221)", "details": "Compound concentration 10.0 uM"}, "[7]": {"target": "Serine/threonine-protein kinase PLK1 (Homo sapiens) (UniProt P53350)", "details": "Compound concentration 100.0 nM"}, "[8]": {"target": "Tyrosine-protein kinase TXK (Homo sapiens) (UniProt P42681)", "details": "Compound concentration 100.0 nM"}, "[9]": {"system": "Mast/stem cell growth factor receptor Kit (Homo sapiens), P10721 [D816H]", "details": "Compound concentration 100.0 nM"}, "[10]": {"target": "Serine/threonine-protein kinase DCLK1 (Homo sapiens) (UniProt O15075)", "details": "Compound concentration 100.0 nM"}, "[11]": {"target": "T1, Activin receptor type-1B (Homo sapiens) (UniProt P36896)", "T1 sequence (whole entry)": "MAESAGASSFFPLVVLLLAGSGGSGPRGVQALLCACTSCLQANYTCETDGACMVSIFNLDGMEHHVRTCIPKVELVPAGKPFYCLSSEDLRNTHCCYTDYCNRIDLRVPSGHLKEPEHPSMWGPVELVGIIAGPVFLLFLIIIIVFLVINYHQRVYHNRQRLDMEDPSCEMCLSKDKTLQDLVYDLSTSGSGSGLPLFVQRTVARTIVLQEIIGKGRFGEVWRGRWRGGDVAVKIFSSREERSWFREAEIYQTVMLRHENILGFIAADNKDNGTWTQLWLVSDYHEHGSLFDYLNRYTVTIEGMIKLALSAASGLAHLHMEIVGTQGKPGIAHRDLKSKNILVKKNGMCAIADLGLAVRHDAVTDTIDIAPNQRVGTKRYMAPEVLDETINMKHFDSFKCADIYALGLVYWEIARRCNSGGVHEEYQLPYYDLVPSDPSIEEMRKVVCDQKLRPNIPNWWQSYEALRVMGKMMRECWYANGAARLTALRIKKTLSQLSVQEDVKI", "details": "Compound concentration 100.0 nM"}, "[12]": {"target": "Mitogen-activated protein kinase 1 (Homo sapiens) (UniProt P28482)", "details": "Compound concentration 100.0 nM"}, "[13]": {"target": "5-hydroxytryptamine receptor 7 (Homo sapiens) (UniProt P34969)", "details": "Compound concentration 10.0 uM"}, "[14]": {"target": "Mu-type opioid receptor (Homo sapiens) (UniProt P35372)", "details": "Compound concentration 10.0 uM"}, "[15]": {"target": "Serine/threonine-protein kinase PAK 1 (Homo sapiens) (UniProt Q13153)", "details": "Compound concentration 100.0 nM"}, "[16]": {"target": "Serine/threonine-protein kinase 24 (Homo sapiens) (UniProt Q9Y6E0)", "details": "Compound concentration 100.0 nM"}, "[17]": {"target": "Casein kinase II subunit alpha (Homo sapiens) (UniProt P68400)", "sequence (P68400 whole entry, looked up)": "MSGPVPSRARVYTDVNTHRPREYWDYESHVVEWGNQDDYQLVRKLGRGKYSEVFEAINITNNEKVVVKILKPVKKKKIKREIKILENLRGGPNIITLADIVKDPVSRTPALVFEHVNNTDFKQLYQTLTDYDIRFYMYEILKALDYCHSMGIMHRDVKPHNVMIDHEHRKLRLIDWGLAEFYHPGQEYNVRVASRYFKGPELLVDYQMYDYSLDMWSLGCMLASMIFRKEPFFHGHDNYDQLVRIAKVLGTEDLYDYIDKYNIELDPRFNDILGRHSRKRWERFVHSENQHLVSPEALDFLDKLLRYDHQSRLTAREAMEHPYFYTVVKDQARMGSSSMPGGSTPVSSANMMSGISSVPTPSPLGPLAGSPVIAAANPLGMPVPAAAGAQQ", "details": "Compound concentration 100.0 nM"}, "[18]": {"target": "Proto-oncogene tyrosine-protein kinase receptor Ret (Homo sapiens) (UniProt P07949)", "details": "Compound concentration 100.0 nM"}, "[19]": {"target": "Tyrosine-protein kinase SYK (Homo sapiens) (UniProt P43405)", "details": "Compound concentration 100.0 nM"}, "[20]": {"target": "Dual specificity testis-specific protein kinase 1 (Homo sapiens) (UniProt Q15569)", "details": "Compound concentration 100.0 nM"}, "[21]": {"target": "Receptor-type tyrosine-protein kinase FLT3 (Homo sapiens) (UniProt P36888)", "details": "Compound concentration 100.0 nM"}, "[22]": {"target": "Tyrosine-protein kinase receptor UFO (Homo sapiens) (UniProt P30530)", "details": "Compound concentration 100.0 nM"}, "[23]": {"target": "Serine/threonine-protein kinase Nek11 (Homo sapiens) (UniProt Q8NG66)", "details": "Compound concentration 100.0 nM"}, "[24]": {"system": "Receptor-type tyrosine-protein kinase FLT3 (Homo sapiens), P36888 [UNDEFINED MUTATION]", "details": "Compound concentration 100.0 nM"}, "[25]": {"target": "Ephrin type-B receptor 2 (Homo sapiens) (UniProt P29323)", "details": "Compound concentration 100.0 nM"}, "[26]": {"target": "Bone morphogenetic protein receptor type-1B (Homo sapiens) (UniProt O00238)", "sequence (O00238 whole entry)": "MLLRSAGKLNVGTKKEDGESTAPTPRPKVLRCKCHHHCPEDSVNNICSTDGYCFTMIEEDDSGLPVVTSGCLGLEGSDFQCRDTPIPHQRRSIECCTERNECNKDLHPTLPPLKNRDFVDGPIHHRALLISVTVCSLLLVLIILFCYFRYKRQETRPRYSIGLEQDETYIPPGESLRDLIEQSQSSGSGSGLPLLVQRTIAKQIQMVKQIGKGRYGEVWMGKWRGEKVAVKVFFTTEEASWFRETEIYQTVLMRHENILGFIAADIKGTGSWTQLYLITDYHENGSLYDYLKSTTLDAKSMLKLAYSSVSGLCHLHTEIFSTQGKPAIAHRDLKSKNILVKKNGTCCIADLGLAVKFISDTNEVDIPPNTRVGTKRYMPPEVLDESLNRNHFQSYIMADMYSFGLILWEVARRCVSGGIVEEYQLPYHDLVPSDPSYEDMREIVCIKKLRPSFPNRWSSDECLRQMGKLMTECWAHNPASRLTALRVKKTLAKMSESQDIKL", "details": "Compound concentration 100.0 nM"}, "[27]": {"target": "STE20-like serine/threonine-protein kinase (Homo sapiens) (UniProt Q9H2G2)", "details": "Compound concentration 100.0 nM"}, "[28]": {"target": "Interleukin-1 receptor-associated kinase 1 (Homo sapiens) (UniProt P51617)", "details": "Compound concentration 100.0 nM"}, "[29]": {"system": "Mast/stem cell growth factor receptor Kit (Homo sapiens), P10721 [A829P]", "details": "Compound concentration 100.0 nM"}, "[30]": {"target": "Mitogen-activated protein kinase 14 (Homo sapiens) (UniProt Q16539)", "sequence (Q16539 whole entry)": "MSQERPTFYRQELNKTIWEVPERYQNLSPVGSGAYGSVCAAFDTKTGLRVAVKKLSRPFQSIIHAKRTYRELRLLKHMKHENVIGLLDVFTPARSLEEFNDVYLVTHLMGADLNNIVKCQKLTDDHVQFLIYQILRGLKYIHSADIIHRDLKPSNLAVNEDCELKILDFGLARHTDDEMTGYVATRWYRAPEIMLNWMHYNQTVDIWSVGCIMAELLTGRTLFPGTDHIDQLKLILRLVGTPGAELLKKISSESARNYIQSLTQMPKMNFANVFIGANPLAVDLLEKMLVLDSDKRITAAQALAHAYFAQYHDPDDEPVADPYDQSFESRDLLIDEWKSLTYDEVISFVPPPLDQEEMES", "details": "Compound concentration 100.0 nM"}, "[31]": {"target": "Phosphatidylinositol 4-phosphate 3-kinase C2 domain-containing subunit beta (Homo sapiens) (UniProt O00750)", "sequence (O00750 whole entry, the tested form may be a part)": "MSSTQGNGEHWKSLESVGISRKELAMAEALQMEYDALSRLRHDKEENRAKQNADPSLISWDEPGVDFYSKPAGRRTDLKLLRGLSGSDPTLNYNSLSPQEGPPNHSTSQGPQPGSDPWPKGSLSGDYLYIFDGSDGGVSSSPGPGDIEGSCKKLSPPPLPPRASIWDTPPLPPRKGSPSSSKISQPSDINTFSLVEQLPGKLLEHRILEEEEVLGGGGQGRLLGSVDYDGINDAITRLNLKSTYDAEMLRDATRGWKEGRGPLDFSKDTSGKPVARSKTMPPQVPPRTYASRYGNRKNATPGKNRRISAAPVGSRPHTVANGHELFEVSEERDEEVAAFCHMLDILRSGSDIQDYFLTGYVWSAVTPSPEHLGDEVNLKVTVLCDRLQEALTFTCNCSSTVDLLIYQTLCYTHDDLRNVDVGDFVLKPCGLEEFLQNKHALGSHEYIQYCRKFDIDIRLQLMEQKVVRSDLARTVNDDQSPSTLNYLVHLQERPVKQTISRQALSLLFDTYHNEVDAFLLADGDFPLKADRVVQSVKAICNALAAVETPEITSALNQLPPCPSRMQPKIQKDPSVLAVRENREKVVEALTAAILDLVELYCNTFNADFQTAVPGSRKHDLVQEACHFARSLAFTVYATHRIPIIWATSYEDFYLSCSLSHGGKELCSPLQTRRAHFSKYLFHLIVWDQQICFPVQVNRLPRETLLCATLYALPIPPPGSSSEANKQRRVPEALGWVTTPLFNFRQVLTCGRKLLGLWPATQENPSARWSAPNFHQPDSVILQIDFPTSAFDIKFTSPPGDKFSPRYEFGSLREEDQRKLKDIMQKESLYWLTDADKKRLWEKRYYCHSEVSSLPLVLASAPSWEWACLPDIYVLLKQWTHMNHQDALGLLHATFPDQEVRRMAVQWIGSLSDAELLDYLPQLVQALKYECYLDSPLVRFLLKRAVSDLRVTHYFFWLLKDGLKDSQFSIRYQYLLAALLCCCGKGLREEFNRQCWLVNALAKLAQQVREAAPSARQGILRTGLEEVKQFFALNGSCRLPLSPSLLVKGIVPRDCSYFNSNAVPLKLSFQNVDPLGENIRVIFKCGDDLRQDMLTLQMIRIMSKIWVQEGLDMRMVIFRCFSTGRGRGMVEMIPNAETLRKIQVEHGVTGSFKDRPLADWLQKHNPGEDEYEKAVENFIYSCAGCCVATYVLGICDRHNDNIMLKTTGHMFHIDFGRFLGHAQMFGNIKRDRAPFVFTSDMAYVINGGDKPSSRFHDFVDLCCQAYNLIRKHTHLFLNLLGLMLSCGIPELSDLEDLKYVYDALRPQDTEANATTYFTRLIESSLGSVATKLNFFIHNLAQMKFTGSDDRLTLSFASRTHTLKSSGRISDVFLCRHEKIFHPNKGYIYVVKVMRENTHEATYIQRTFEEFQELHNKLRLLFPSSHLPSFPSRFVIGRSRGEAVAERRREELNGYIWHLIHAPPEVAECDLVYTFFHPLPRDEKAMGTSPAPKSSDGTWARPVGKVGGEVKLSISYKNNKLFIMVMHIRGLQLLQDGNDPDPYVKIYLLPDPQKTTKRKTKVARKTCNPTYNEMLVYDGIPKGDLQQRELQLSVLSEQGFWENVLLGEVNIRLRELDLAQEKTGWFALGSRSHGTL", "details": "Compound concentration 100.0 nM"}, "D(1B) dopamine receptor": {"target": "D(1B) dopamine receptor (Homo sapiens, UniProt P21918)", "experiment": "GPCRScan assay: inhibition of D5", "design": "radioligand conc. used [nm] 2.0 – 3.0, parental cells HEKT"}, "[32]": {"target": "Serine/threonine-protein kinase 38 (Homo sapiens) (UniProt Q15208)", "details": "Compound concentration 100.0 nM"}, "[33]": {"target": "Sigma non-opioid intracellular receptor 1 (Homo sapiens) (UniProt Q99720)", "details": "Compound concentration 10.0 uM"}, "[34]": {"target": "Misshapen-like kinase 1 (Homo sapiens) (UniProt Q8N4C8)", "sequence (Q8N4C8 whole entry, looked up)": "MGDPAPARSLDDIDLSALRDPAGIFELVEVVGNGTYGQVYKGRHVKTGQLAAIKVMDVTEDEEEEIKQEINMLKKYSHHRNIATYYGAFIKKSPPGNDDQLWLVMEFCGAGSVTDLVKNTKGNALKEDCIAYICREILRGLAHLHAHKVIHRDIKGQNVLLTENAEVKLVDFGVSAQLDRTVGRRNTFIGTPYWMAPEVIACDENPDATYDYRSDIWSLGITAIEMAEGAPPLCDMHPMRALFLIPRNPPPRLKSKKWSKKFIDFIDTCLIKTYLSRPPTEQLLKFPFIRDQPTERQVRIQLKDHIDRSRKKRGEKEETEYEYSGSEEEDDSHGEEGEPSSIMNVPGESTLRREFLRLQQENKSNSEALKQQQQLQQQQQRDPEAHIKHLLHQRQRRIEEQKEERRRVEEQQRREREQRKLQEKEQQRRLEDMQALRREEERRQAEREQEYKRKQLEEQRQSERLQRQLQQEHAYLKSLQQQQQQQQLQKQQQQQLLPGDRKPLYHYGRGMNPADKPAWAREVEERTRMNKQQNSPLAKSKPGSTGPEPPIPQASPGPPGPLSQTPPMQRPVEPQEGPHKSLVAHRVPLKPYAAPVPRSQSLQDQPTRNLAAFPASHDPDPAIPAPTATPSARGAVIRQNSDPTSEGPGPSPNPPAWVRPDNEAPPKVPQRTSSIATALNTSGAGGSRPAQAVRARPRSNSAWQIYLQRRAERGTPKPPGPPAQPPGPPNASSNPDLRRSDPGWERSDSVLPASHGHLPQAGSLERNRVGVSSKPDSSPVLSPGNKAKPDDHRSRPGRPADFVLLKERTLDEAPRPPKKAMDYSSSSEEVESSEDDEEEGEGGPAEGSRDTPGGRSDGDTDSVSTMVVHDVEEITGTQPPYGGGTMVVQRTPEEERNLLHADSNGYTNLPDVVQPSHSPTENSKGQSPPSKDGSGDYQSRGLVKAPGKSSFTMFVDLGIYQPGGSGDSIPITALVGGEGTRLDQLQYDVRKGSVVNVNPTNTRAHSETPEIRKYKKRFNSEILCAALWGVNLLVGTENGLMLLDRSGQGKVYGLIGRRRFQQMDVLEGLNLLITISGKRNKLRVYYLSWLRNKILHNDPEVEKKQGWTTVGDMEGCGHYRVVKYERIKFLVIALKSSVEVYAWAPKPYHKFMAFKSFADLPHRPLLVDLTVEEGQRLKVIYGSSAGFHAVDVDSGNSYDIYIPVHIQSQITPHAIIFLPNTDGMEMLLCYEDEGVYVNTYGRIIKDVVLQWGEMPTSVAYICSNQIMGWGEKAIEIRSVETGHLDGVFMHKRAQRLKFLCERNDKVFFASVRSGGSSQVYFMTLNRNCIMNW", "details": "Compound concentration 100.0 nM"}, "[35]": {"target": "Homeodomain-interacting protein kinase 1 (Homo sapiens) (UniProt Q86Z02)", "details": "Compound concentration 100.0 nM"}, "[36]": {"target": "Serine/threonine-protein kinase D1 (Homo sapiens) (UniProt Q15139)", "details": "Compound concentration 100.0 nM"}, "[37]": {"target": "Insulin-like growth factor 1 receptor (Homo sapiens) (UniProt P08069)", "details": "Compound concentration 100.0 nM"}}, "note": "pKi: −log10 of the molar value."}
{"smiles": "CCOC(=O)c1cc2cc(-c3cc(C(=O)NCc4ccc(C(=O)O)cc4)nn3C)ccc2[nH]1", "note": "[BI 4394]", "values": [{"measurement": "residual activity", "setting": "[1]", "value": 100, "unit": "%"}, {"measurement": "residual activity", "setting": "[2]", "value": 100, "unit": "%"}, {"measurement": "residual activity", "setting": "[3]", "value": 94, "unit": "%"}, {"measurement": "residual activity", "setting": "[4]", "value": 100, "unit": "%"}, {"measurement": "residual activity", "setting": "[5]", "value": 100, "unit": "%"}, {"measurement": "inhibition", "setting": "[6]", "value": 3.64, "unit": "%"}, {"measurement": "residual activity", "setting": "[7]", "value": 90, "unit": "%"}, {"measurement": "residual activity", "setting": "[8]", "value": 90, "unit": "%"}, {"measurement": "residual activity", "setting": "[9]", "value": 75, "unit": "%"}, {"measurement": "residual activity", "setting": "[10]", "value": 86, "unit": "%"}, {"measurement": "residual activity", "setting": "[11]", "value": 86, "unit": "%"}, {"measurement": "residual activity", "setting": "[12]", "value": 99, "unit": "%"}, {"measurement": "inhibition", "setting": "[13]", "value": 5.88, "unit": "%"}, {"measurement": "inhibition", "setting": "[14]", "value": 0.37, "unit": "%"}, {"measurement": "residual activity", "setting": "[15]", "value": 92, "unit": "%"}, {"measurement": "residual activity", "setting": "[16]", "value": 92, "unit": "%"}, {"measurement": "residual activity", "setting": "[17]", "value": 81, "unit": "%"}, {"measurement": "residual activity", "setting": "[18]", "value": 87, "unit": "%"}, {"measurement": "residual activity", "setting": "[19]", "value": 100, "unit": "%"}, {"measurement": "residual activity", "setting": "[20]", "value": 97, "unit": "%"}, {"measurement": "residual activity", "setting": "[21]", "value": 98, "unit": "%"}, {"measurement": "residual activity", "setting": "[22]", "value": 89, "unit": "%"}, {"measurement": "residual activity", "setting": "[23]", "value": 77, "unit": "%"}, {"measurement": "residual activity", "setting": "[24]", "value": 98, "unit": "%"}, {"measurement": "residual activity", "setting": "[25]", "value": 100, "unit": "%"}, {"measurement": "residual activity", "setting": "[26]", "value": 96, "unit": "%"}, {"measurement": "residual activity", "setting": "[27]", "value": 98, "unit": "%"}, {"measurement": "residual activity", "setting": "[28]", "value": 85, "unit": "%"}, {"measurement": "residual activity", "setting": "[29]", "value": 95, "unit": "%"}, {"measurement": "residual activity", "setting": "[30]", "value": 100, "unit": "%"}, {"measurement": "residual activity", "setting": "[31]", "value": 93, "unit": "%"}, {"measurement": "pKi", "setting": "D(1B) dopamine receptor", "value": 5.00}, {"measurement": "residual activity", "setting": "[32]", "value": 95, "unit": "%"}, {"measurement": "inhibition", "setting": "[33]", "value": 14.6, "unit": "%"}, {"measurement": "residual activity", "setting": "[34]", "value": 94, "unit": "%"}, {"measurement": "residual activity", "setting": "[35]", "value": 91, "unit": "%"}, {"measurement": "residual activity", "setting": "[36]", "value": 75, "unit": "%"}, {"measurement": "residual activity", "setting": "[37]", "value": 82, "unit": "%"}]}
{"smiles": "Cn1nc(C(=O)NCc2ccc(C(=O)O)cc2)cc1-c1ccc2[nH]ccc2c1", "note": "[BI 4395]", "values": [{"measurement": "residual activity", "setting": "[1]", "value": 31, "unit": "%"}, {"measurement": "residual activity", "setting": "[2]", "value": 87, "unit": "%"}, {"measurement": "residual activity", "setting": "[3]", "value": 75, "unit": "%"}, {"measurement": "residual activity", "setting": "[4]", "value": 100, "unit": "%"}, {"measurement": "residual activity", "setting": "[5]", "value": 100, "unit": "%"}, {"measurement": "inhibition", "setting": "[6]", "value": 10.1, "unit": "%"}, {"measurement": "residual activity", "setting": "[7]", "value": 95, "unit": "%"}, {"measurement": "residual activity", "setting": "[8]", "value": 90, "unit": "%"}, {"measurement": "residual activity", "setting": "[9]", "value": 81, "unit": "%"}, {"measurement": "residual activity", "setting": "[10]", "value": 88, "unit": "%"}, {"measurement": "residual activity", "setting": "[11]", "value": 83, "unit": "%"}, {"measurement": "residual activity", "setting": "[12]", "value": 94, "unit": "%"}, {"measurement": "inhibition", "setting": "[13]", "value": -4.31, "unit": "%"}, {"measurement": "inhibition", "setting": "[14]", "value": 2.9, "unit": "%"}, {"measurement": "residual activity", "setting": "[15]", "value": 86, "unit": "%"}, {"measurement": "residual activity", "setting": "[16]", "value": 97, "unit": "%"}, {"measurement": "residual activity", "setting": "[17]", "value": 68, "unit": "%"}, {"measurement": "residual activity", "setting": "[18]", "value": 83, "unit": "%"}, {"measurement": "residual activity", "setting": "[19]", "value": 81, "unit": "%"}, {"measurement": "residual activity", "setting": "[20]", "value": 92, "unit": "%"}, {"measurement": "residual activity", "setting": "[21]", "value": 95, "unit": "%"}, {"measurement": "residual activity", "setting": "[22]", "value": 89, "unit": "%"}, {"measurement": "residual activity", "setting": "[23]", "value": 83, "unit": "%"}, {"measurement": "residual activity", "setting": "[24]", "value": 91, "unit": "%"}, {"measurement": "residual activity", "setting": "[25]", "value": 100, "unit": "%"}, {"measurement": "residual activity", "setting": "[26]", "value": 88, "unit": "%"}, {"measurement": "residual activity", "setting": "[27]", "value": 65, "unit": "%"}, {"measurement": "residual activity", "setting": "[28]", "value": 93, "unit": "%"}, {"measurement": "residual activity", "setting": "[29]", "value": 72, "unit": "%"}, {"measurement": "residual activity", "setting": "[30]", "value": 100, "unit": "%"}, {"measurement": "residual activity", "setting": "[31]", "value": 78, "unit": "%"}, {"measurement": "pKi", "setting": "D(1B) dopamine receptor", "value": 5.00}, {"measurement": "residual activity", "setting": "[32]", "value": 92, "unit": "%"}, {"measurement": "inhibition", "setting": "[33]", "value": 1.99, "unit": "%"}, {"measurement": "residual activity", "setting": "[34]", "value": 95, "unit": "%"}, {"measurement": "residual activity", "setting": "[35]", "value": 85, "unit": "%"}, {"measurement": "residual activity", "setting": "[36]", "value": 95, "unit": "%"}, {"measurement": "residual activity", "setting": "[37]", "value": 91, "unit": "%"}]}
